Experimental data as given in US20230331718A1, “COMPOSITIONS FOR MODULATING SPLICING” (Skyhawk Therapeutics, Inc., priority 2020, published 2023).

Key:
[1] = test system: SMN2 Splicing D7 (SMN Δ7 transcript); experiment: SMN Quantitative Splicing Assay (qPCR); assay type: cell-based, human; conditions: 24 h, SMA patient fibroblasts (GM03813), 2.5 µM to 0.6 nM
Procedure: Spinal muscular atrophy (SMA) patient fibroblasts (GM03813, Coriell) were plated in 96-well plates at 50,000 cells/well. […] Treated cells were lysed and cDNA synthesized using the Fast Advanced Cells-to-Ct kit (Thermofisher A35378) according to the manufacturer’s instructions. 2 µL of each cDNA were used in qPCR reactions. […] Reactions were run in a Quant Studio 6 qPCR instrument with default settings.

SMN2 Protein = experiment: SMN Protein Assay (MSD); assay type: cell-based, human; conditions: SMA patient fibroblasts, 48 hours, 0.6 nM to 2.5 µM
Procedure: Spinal muscular atrophy (SMA) patient fibroblasts were plated in 96-well plates at 7,000 cells/well. Compounds were added in concentrations ranging from 0.6 nM to 2.5 µM, incubated for 48 hours and the cells were lysed with 100 µL of lysis buffer. 20 µL of lysate was used for SMN protein measurement by Mesoscale Discovery (MSD) assay developed by PharmOptima (Michigan). A standard curve prepared with SMN protein ranging from 1 µg/ml to 19.5pg/ml was used in each MSD plate to calculate the absolute SMN protein amount in each sample.

Row | Structure (SMILES) | IC50 ([1]; Homo sapiens, Fibroblast) [nM] | EC50 (SMN2 Protein) [nM] | IC50 [1] [nM]
1 | Cc1nc2cc(O)c(-c3ncc(N(C)[C@@H]4C[C@H]5CCC(N5)[C@@H]4F)nn3)cc2nc1C [Compound 86] | 51 to 100 | 51 to 100 | –
2 | CN(c1cnc(-c2cc3ncn(C)c(=O)c3cc2O)nn1)[C@H]1CC2CCC(N2)[C@H]1F (single isomer, unassigned) [Compound 3B] | 0.01 to 15 | 0.01 to 15 | –
3 | CCC1C[C@@H](N(C)c2cnc(-c3cc4oc(C(F)(F)F)c(C)c(=O)c4cc3O)nn2)[C@@H](F)[C@H](C)N1 (some centres unmarked) [Compound 79] | 101 to 500 | 16 to 50 | –
4 | CN(c1cnc(-c2cc3cnn(C)c(=O)c3cc2O)nn1)[C@H]1C[C@@H]2CC[C@@](C)(N2)[C@H]1F [Compound 183] | 0.01 to 15 | 0.01 to 15 | –
5 | Cc1cnc2cc(O)c(-c3ncc(N(C)[C@H]4C[C@@H]5CCC(N5)[C@H]4F)nn3)cc2n1 [Compound 52] | 16 to 50 | 0.01 to 15 | –
6 | CN(c1cnc(-c2cc3ncn(C)c(=O)c3cc2O)nn1)C1CC2CC(F)(F)C(C1)N2 (centres unmarked) [Compound 144] | – | 0.01 to 15 | 0.01 to 15
7 | Cc1nc2cc(O)c(-c3ncc(N(C)[C@H]4C[C@]5(C)CC[C@@](C)(N5)[C@H]4F)nn3)cc2nc1C [Compound 87] | 0.01 to 15 | 0.01 to 15 | –
8 | CN(c1cnc(-c2cc3occ(C(F)(F)F)c(=O)c3cc2O)nn1)[C@@H]1C[C@H]2CC[C@H](N2)[C@@H]1F [Compound 89] | 101 to 500 | 51 to 100 | –
9 | [2H]C([2H])([2H])N(c1cnc(-c2cc3ccn(C([2H])([2H])[2H])c(=O)c3cc2O)nn1)[C@@H]1CC2CC[C@H](N2)[C@@H]1F [Compound 168] | 51 to 100 | 0.01 to 15 | –
10 | CN(c1cnc(-c2cc3ccn(C)c(=O)c3cc2O)nn1)C1CC2CC(F)(F)C(C1)N2 (centres unmarked) [Compound 142] | – | 0.01 to 15 | 16 to 50
11 | CN(c1cnc(-c2cc3nccnc3cc2O)nn1)[C@@H]1CC2CC[C@H](N2)[C@@H]1F [Compound 19] | 101 to 500 | 101 to 500 | –
12 | [2H]C([2H])([2H])n1ncc2cc(-c3ncc(N(C)[C@@H]4CC5CC[C@H](N5)[C@@H]4F)nn3)c(O)cc2c1=O [Compound 182] | 0.01 to 15 | 0.01 to 15 | –
13 | CCn1ncc2cc(-c3ncc(N(C)[C@H]4C[C@@H]5CCC(N5)[C@H]4F)nn3)c(O)cc2c1=O [Compound 165] | 0.01 to 15 | 0.01 to 15 | –
14 | CN(c1cnc(-c2cc3c(F)cn(C)c(=O)c3cc2O)nn1)[C@H]1C[C@@H]2CCC(N2)[C@H]1F [Compound 66, 4-Fluoro-6-(6-{[(2R,3S,5S)-2-fluoro-8-azabicyclo[3.2.1]octan-3-yl](methyl)amino}-1,2,4-triazin-3-yl)-7-hydroxy-2-methylisoquinolin-1-one] | 0.01 to 15 | 0.01 to 15 | –
15 | CN(c1cnc(-c2cc3occc(=O)c3cc2O)nn1)[C@H]1C[C@@H]2CCCC(N2)[C@H]1F [Compound 63] | 16 to 50 | 0.01 to 15 | –
16 | [2H]C([2H])([2H])n1ccc2cc(-c3ncc(N(C)[C@H]4CC5CCC(N5)[C@H]4F)nn3)c(O)cc2c1=O (some centres unmarked) [Compound 157] | 16 to 50 | 16 to 50 | –
17 | CN(c1cnc(-c2cc3c(F)cn(C)c(=O)c3cc2O)nn1)[C@@H]1CC2CC[C@H](N2)[C@@H]1F [Compound 65] | 16 to 50 | 0.01 to 15 | –
18 | CN(c1cnc(-c2cc3occc(=O)c3cc2O)nn1)[C@@H]1CC2CCC[C@H](N2)[C@@H]1F [Compound 60] | 16 to 50 | 0.01 to 15 | –
19 | CN(c1cnc(-c2cc3ccn(C)c(=O)c3cc2O)nn1)C1CC2CC(F)(F)C(C1)N2 (centres unmarked) [Compound 141] | – | 101 to 500 | 101 to 500
20 | CN(c1cnc(-c2cc3occc(=O)c3cc2O)nn1)[C@@H]1CC2COC[C@H](N2)[C@@H]1F [Compound 67] | 101 to 500 | 51 to 100 | –
21 | CCc1cc(=O)c2cc(-c3ncc(N(C)[C@H]4C[C@@H]5CCC(N5)[C@H]4F)nn3)c(O)cc2o1 [Compound 118] | 0.01 to 15 | 0.01 to 15 | –
22 | Cc1cnc2cc(O)c(-c3ncc(N(C)[C@@H]4CC5CCCC(N5)[C@@H]4F)nn3)cc2n1 (some centres unmarked) [Compound 159] | 16 to 50 | 0.01 to 15 | –
23 | Cc1cc(=O)c2cc(O)c(-c3ncc(N(C)C4CC5CCCC(N5)C4F)nn3)cc2o1 (centres unmarked) [Compound 128] | 16 to 50 | 0.01 to 15 | –
24 | CN(c1cnc(-c2cc3ncccc3cc2O)nn1)[C@H]1C[C@@H]2CCC(N2)[C@H]1F [Compound 58] | 16 to 50 | 16 to 50 | –
25 | Cc1cc(=O)c2cc(O)c(-c3ncc(N(C)[C@H]4CC5CCC[C@@H](N5)[C@H]4F)nn3)cc2o1 [Compound 127] | 0.01 to 15 | 0.01 to 15 | –
26 | CN(c1cnc(-c2cc3ccn(CC(F)(F)F)c(=O)c3cc2O)nn1)[C@H]1C[C@@H]2CC[C@@H](N2)[C@H]1F [Compound 100] | 16 to 50 | 0.01 to 15 | –
27 | Cc1cc(=O)c2cc(-c3ncc(N(C)[C@@H]4C[C@H]5CC[C@H](N5)[C@@H]4F)nn3)c(O)cc2o1 (single isomer, unassigned) [Compound 1A] | 16 to 50 | 16 to 50 | –

Row | Structure (SMILES) | IC50 ([1]; Homo sapiens, Fibroblast) [nM] | EC50 (SMN2 Protein) [nM] | IC50 [1] [nM]
28 | Cc1cnc2cc(-c3ncc(N(C)[C@H]4CC5CCCC(N5)[C@H]4F)nn3)c(O)cc2n1 (some centres unmarked) [Compound 106] | 16 to 50 | 0.01 to 15 | –
29 | CN(c1cnc(-c2cc3ccn(C)c(=O)c3cc2O)nn1)[C@@H]1CC2CCC(N2)[C@@H]1F (single isomer, unassigned) [Compound 4A] | 16 to 50 | 16 to 50 | –
30 | CN(c1cnc(-c2cc3cccnc3cc2O)nn1)C1CC2CCC(N2)[C@@H]1F (some centres unmarked) [Compound 23] | 101 to 500 | 501 to 10000 | –
31 | CCn1ccc2cc(-c3ncc(N(C)[C@H]4C[C@@H]5CCCC(N5)[C@H]4F)nn3)c(O)cc2c1=O [Compound 121] | 0.01 to 15 | 0.01 to 15 | –
32 | Cc1cc(=O)c2cc(O)c(-c3ncc(N(C)[C@H]4CC5CC[C@@H](N5)[C@H]4F)nn3)cc2o1 (single isomer, unassigned) [Compound 6B] | 0.01 to 15 | 0.01 to 15 | –
33 | CN(c1cnc(-c2cc3oc(C(F)(F)F)cc(=O)c3cc2O)nn1)[C@H]1C[C@@H]2CCC(N2)[C@H]1F [Compound 80] | 0.01 to 15 | 0.01 to 15 | –
34 | CN(c1cnc(-c2cc3cnccc3cc2O)nn1)[C@@H]1CC2CCC(N2)[C@@H]1F (single isomer, unassigned) [Compound 5A] | 101 to 500 | 101 to 500 | –
35 | CN(c1cnc(-c2cc3ncn(C)c(=O)c3cc2O)nn1)C1C[C@]2(C)CCC(N2)[C@H]1F (some centres unmarked) [Compound 36] | 16 to 50 | 16 to 50 | –
36 | [2H]C([2H])([2H])n1ncc2cc(-c3ncc(N(C)[C@H]4C[C@@H]5CCC(N5)[C@H]4F)nn3)c(O)cc2c1=O [Compound 181] | 0.01 to 15 | 0.01 to 15 | –
37 | CCn1cnc2cc(-c3ncc(N(C)C4CC5CCC(N5)[C@H]4F)nn3)c(O)cc2c1=O (some centres unmarked) [Compound 32] | 0.01 to 15 | 0.01 to 15 | –
38 | CCn1cc(F)c2cc(-c3ncc(N(C)[C@@H]4CC5CC(F)(F)C(C4)N5)nn3)c(O)cc2c1=O (some centres unmarked) [Compound 211] | 101 to 500 | 501 to 10000 | –
39 | Cc1cnc2cc(O)c(-c3ncc(N(C)[C@H]4CC5CCCC(N5)[C@H]4F)nn3)cc2n1 (some centres unmarked) [Compound 160] | 101 to 500 | 101 to 500 | –
40 | CN(c1cnc(-c2cc3c(=O)ccoc3cc2O)nn1)[C@H]1CC2CCCC(N2)[C@H]1F (some centres unmarked) [Compound 110] | 51 to 100 | 101 to 500 | –
41 | Cc1cnc2cc(-c3ncc(N(C)[C@@H]4CC5CC[C@H](N5)[C@@H]4F)nn3)c(O)cc2n1 [Compound 53] | 51 to 100 | 101 to 500 | –
42 | Cc1coc2cc(-c3ncc(N(C)C4CC5CCC(N5)[C@H]4F)nn3)c(O)cc2c1=O (some centres unmarked) [Compound 28] | 0.01 to 15 | 0.01 to 15 | –
43 | CN(c1cnc(-c2cc3cnn(C)c(=O)c3cc2O)nn1)C1CC2CCCC(N2)C1F (centres unmarked) [Compound 131] | – | 0.01 to 15 | 0.01 to 15
44 | Cc1cc2cc(-c3ncc(N(C)[C@@H]4CC5CCCC(N5)[C@@H]4F)nn3)c(O)cc2cn1 (some centres unmarked) [Compound 47] | 51 to 100 | 16 to 50 | –
45 | CN(c1cnc(-c2cc3cnn(C)c(=O)c3cc2O)nn1)[C@H]1CC2CCC(N2)[C@H]1F (single isomer, unassigned) [Compound 2B] | 0.01 to 15 | 0.01 to 15 | –
46 | Cc1cc2cc(O)c(-c3ncc(N(C)[C@H]4CC5CCC(N5)[C@H]4F)nn3)cc2cn1 (some centres unmarked) [Compound 46] | 0.01 to 15 | 0.01 to 15 | –
47 | CCc1coc2cc(-c3ncc(N(C)[C@H]4C[C@@H]5CC[C@@H](N5)[C@H]4F)nn3)c(O)cc2c1=O (single isomer, unassigned) [Compound 96] | 0.01 to 15 | 0.01 to 15 | –
48 | [2H]C([2H])([2H])n1cc(F)c2cc(-c3ncc(N(C)[C@@H]4CC5CC[C@H](N5)[C@@H]4F)nn3)c(O)cc2c1=O [Compound 192] | 0.01 to 15 | 0.01 to 15 | –
49 | CN(c1cnc(-c2cc3c(F)cn(C)c(=O)c3cc2O)nn1)[C@H]1CC2COCC(N2)[C@H]1F (some centres unmarked) [Compound 218] | 51 to 100 | – | –
50 | CCn1cc(F)c2cc(-c3ncc(N(C)[C@H]4CC5COCC(N5)[C@H]4F)nn3)c(O)cc2c1=O (some centres unmarked) [Compound 221] | 501 to 10000 | – | –
51 | CN(c1cnc(-c2cc3c(F)cn(C)c(=O)c3cc2O)nn1)[C@@H]1CC2COCC(N2)[C@@H]1F (some centres unmarked) [Compound 219] | 16 to 50 | – | –
52 | CNC(=O)c1ccc2cc(-c3ncc(N(C)[C@@H]4C[C@H]5CC[C@@H](C4)N5)nn3)c(O)cc2n1 [Compound 9] | – | 0.01 to 15 | –
53 | CCn1cc(F)c2cc(-c3ncc(N(C)[C@@H]4CC5COCC(N5)[C@@H]4F)nn3)c(O)cc2c1=O (some centres unmarked) [Compound 222] | 101 to 500 | – | –
